From US7442841B2, “Extraction process” (Invista North America S.A R.L., priority 2006, dated 2008)

Legend:
[1] = Extraction of 2-octanone from octane, IL/Octane distribution coefficient; type: physicochemical; conditions: concentration of substrate in IL divided by concentration in octane
Protocol: (§1) A corresponding set of experiments was conducted to study the extraction of octanol and 2-octanone from octane using ionic liquids. The results are presented in Table 2 below, in which the IL/Octane distribution coefficient is calculated as the concentration of substrate in IL divided by the concentration of substrate in octane.

[2] = Extraction of octanol from octane, IL/Octane distribution coefficient; type: physicochemical; conditions: concentration of substrate in IL divided by concentration in octane
Protocol: as §1

[3] = Liquid-liquid separation of cyclohexanol from cyclohexane, distribution coefficient by gas chromatography; type: physicochemical; conditions: for Cyclohexanol D (distribution coefficient): concentration in extracting solvent phase divided by concentration in cyclohexane phase, 1 mL stock solution + 1 mL extracting solvent; for Cyclohexanol Log D: extracting solvent/cyclohexane, equal volumes
Protocol: The distribution coefficient for the separation was then calculated.

[4] = Liquid-liquid separation of cyclohexanone from cyclohexane, distribution coefficient by gas chromatography; conditions: for Cyclohexanone D (distribution coefficient): concentration in extracting solvent phase divided by concentration in cyclohexane phase, 1 mL stock solution + 1 mL extracting solvent; for Cyclohexanone Log D: extracting solvent/cyclohexane, equal volumes
Protocol: As used herein, the term “distribution coefficient” referring to the liquid-liquid separation refers to the concentration of the separable component in the ionic liquid-based phase divided by the concentration of the separable component in the non-polar solvent-based phase. These concentrations are measured subsequent to settling, i.e. when the separation mixture has reached equilibrium subsequent to the vigorous shaking.
The general method used for all the examples was as follows.
Stock solution; 250 mg cyclohexanol (Molecular Weight=100 gmol^−1) and 250 mg cyclohexanone (Molecular Weight=98 gmol^−1) in 10 g of cyclohexane (Molecular Weight=84 gmol^−1).
Method: add 1 mL (0.8 g) of stock solution (20 mg each of cyclohexanol and cyclohexanone) to 1 mL of ionic liquid and shake vigorously. After settling time and complete phase separation, 3 drops of the top layer were added to a vial and filled with ethylene chloride. Gas chromatography analysis was used to provide the number of moles of the separable component in each liquid phase. The distribution coefficient for the separation was then calculated.

IL/Octane distribution coefficient 2-Octanone [1]	IL/Octane distribution coefficient Octanol [2]	Cyclohexanol D (distribution coefficient) [3]	Cyclohexanol Log D [3]	Cyclohexanone D (distribution coefficient) [4]	Cyclohexanone Log D [4]	SMILES
0.89	7.67					C[S+](C)[O-] [Example 19, dimethyl sulfoxide, reference compound]
		2.91	0.46	3.00	0.478	C[N+](C)(C)CCO [Example 5]
		5.96	0.78	0.21		C[N+]1(CCCCS(=O)(=O)O)CCCC1 [Example 8]
		2.32		1.51		CCCCn1cc[n+](C)c1 [Example 4]
		1.60	0.20	3.40		CC[n+]1ccccc1 [Example 2]
		24.79	1.39	2.80	0.45	C[S+](C)[O-] [Example 14, dimethyl sulfoxide, reference compound]
0.16	1.44					Br.CCCC[n+]1ccn(C)c1 [Example 17]
2.08	1.06					CCCCn1cc[n+](C)c1 [Example 15]
		5.12	0.71	5.00		CCCC[N+]1(C)CCCC1 [Example 7]
		1.77		2.11		CCCC[n+]1ccn(C)c1 [Example 3]
		4.10		4.38		CCCCn1cc[n+](C)c1 [Example 6]

SMILES	IL/Octane distribution coefficient 2-Octanone [1]	IL/Octane distribution coefficient Octanol [2]	Cyclohexanol D (distribution coefficient) [3]	Cyclohexanol Log D [3]	Cyclohexanone D (distribution coefficient) [4]	Cyclohexanone Log D [4]
O [Example 1, H2O, reference compound]			0.86	−0.07	0.34	−0.47
